Here are results for four compounds from article PMC10252614 (International Journal of Molecular Sciences, 2023).

One may read the IC50 as the concentration that gives 50% inhibition. A lower IC50 goes with higher potency.

One data set concerns the target T1, GluN1/GluN2B receptor (Homo sapiens, UniProt Q05586+Q13224).
T1 construct: expressed in transfected cells; host or cells: HEK293
Briefly: whole-cell patch-clamp on HEK293 cells expressing GluN1/GluN2B NMDAR. Conditions: HEK293, 10 µM, −60 mV, ± SEM (n = 5–6), 100% = full inhibition; read-out: Relative inhibition (RI) of GluN1/GluN2B NMDAR. The class given is cell-based. The protocol: We tested the derivatives by the whole-cell patch-clamp method at a concentration of 10 μM under steady-state conditions in the presence of the saturating concentrations of NMDAR (co-)agonists (L-glutamate and glycine). […] Whole-cell patch-clamp recordings were performed using an Axopatch 200B amplifier (Molecular Devices, LLC., San Jose, CA, USA) at a holding membrane potential of −60 mV. HEK293 cells were co-transfected with DNA vectors encoding human versions of the GluN1-4a (GluN1) and GluN2B subunits and green fluorescent protein (GFP) in a 1:1:1 ratio using 0.9 μL PolyMag reagent (OZ Biosciences SAS, Marseille, France) in 50 μL Opti-MEM I [56, 57]. After 15 min on a magnetic plate, HEK293 cells were trypsinized and resuspended in Opti-MEM I medium containing 1% FBS, 2 mM MgCl2 and 3 mM kynurenic acid (to reduce cell death caused by activation of NMDARs). Electrophysiological measurements were performed 24–48 h after completion of transfection at room temperature. The extracellular recording solution (ECS) contained (in mM): 160 NaCl, 2.5 KCl, 10 HEPES, 10 D-glucose, 0.2 EDTA, and 0.7 CaCl2 (pH 7.3 with NaOH). […] A microprocessor-controlled rapid perfusion system with a time constant for solution exchange around the recorded cell of ~20 ms was used. Currents were low-pass filtered at 2 kHz using an eight-pole Bessel filter, digitized at 5 kHz, and recorded using the pCLAMP 10 program (Molecular Devices, LLC., San Jose, CA, USA). The co-agonist glycine (100 µM) was applied throughout the recording, and the agonist L-glutamate (1 mM) was used to elicit responses of GluN1/GluN2B receptors.
(In general: The patch-clamp technique gives a direct electrical read-out from membranes.)

The target of another data set is T2, human BChE (hBChE) (Homo sapiens, UniProt P06276).
T2 construct: made in house
Nature of the data set: hBChE inhibition, modified Ellman's method. The class given is biochemical. Conditions: 10^-6 M. The method, then:
(§1) N-Methylpropargylamine-quinazolines were tested for their inhibitory potency against human AChE (hAChE) and human BChE (hBChE) enzymes using the modified spectrophotometric method of Ellman et al..
(§2) The human recombinant BChE and AChE were prepared at the Department of Toxicology and Military Pharmacy (Faculty of Military Health Sciences, Hradec Kralove, Czech Republic). 5,5′-dithiobis(2-nitrobenzoic acid) (Ellman’s reagent, DTNB), phosphate buffer (PB, pH 7.4), acetylthiocholine (ATC) and butyrylthiocholine (BTC), were purchased from Sigma-Aldrich, Prague, Czech Republic. For measuring purposes, polystyrene Nunc 96-well microplates with a flat-bottom shape (ThermoFisher Scientific, Waltham, MA, USA) were utilized. All the assays were carried out in 0.1 M KH2PO4/K2HPO4 buffer, pH 7.4. Enzyme solutions were prepared at 2.0 units/mL in 2 mL aliquots. The assay medium consisted of a 0.1 M phosphate buffer (pH 7.4), 0.01 M DTNB, the enzyme, and 0.01 M substrate (ATC/BTC iodide solution). Concentration 1 µM was tested and the % of inhibition was calculated. Tested compounds were pre-incubated for 5 min. The reaction was started by immediate addition of 20 μL of the substrate. […] Each concentration was assayed in triplicate. Software GraphPad Prism 5 (San Diego, CA, USA) was used for the statistical data evaluation.
(In general: DTNB colorimetry detects thiols as they appear.)

The target in the next data set is T3, human AChE (hAChE) (Homo sapiens, UniProt P22303).
T3 construct: made in house
Nature of the data set: hAChE inhibition, modified Ellman's method. Type of data set: biochemical. Particulars: read-out: % of AChE inhibition. The method, then: as §1, §2

Another data set has as its target T4, hMAO-A (Homo sapiens, UniProt P21397).
T4 construct: purchased Merck (Prague, Czech Republic)
T4 sequence (P21397 1-527): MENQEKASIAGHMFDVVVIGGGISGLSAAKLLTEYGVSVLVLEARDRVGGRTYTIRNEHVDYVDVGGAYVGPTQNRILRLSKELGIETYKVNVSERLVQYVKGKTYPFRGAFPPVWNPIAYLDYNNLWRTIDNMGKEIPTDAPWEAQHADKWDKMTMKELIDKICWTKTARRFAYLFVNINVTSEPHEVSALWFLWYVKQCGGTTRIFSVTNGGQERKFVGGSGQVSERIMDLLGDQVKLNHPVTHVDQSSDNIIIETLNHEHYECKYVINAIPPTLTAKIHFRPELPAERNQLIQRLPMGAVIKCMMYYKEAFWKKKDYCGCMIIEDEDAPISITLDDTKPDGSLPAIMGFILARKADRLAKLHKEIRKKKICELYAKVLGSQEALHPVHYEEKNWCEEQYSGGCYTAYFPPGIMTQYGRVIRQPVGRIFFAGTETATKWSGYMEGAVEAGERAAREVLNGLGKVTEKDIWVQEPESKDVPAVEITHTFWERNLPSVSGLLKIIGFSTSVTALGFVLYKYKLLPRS
Briefly: in vitro inhibition of hMAO-A, kynuramine fluorescence assay. Type of data set: biochemical. The method, then:
The hMAO-A and hMAO-B enzymes were purchased from Merck (Prague, Czech Republic). […] The mixture was pre-incubated at 37 °C for 15 min and subsequently substrate kynuramine was added to the final concentration of 100 µM. The final volume of reaction mixture was 0.1 mL. The whole reaction mixture was incubated at 37 °C for 30 min. The reaction was stopped by the addition of 20 µL 4M NaOH.

For data set [1], the system named is differentiated SH-SY5Y cells. Nature of the data set: MTT viability of differentiated SH-SY5Y. The class given is cell-based, human. Conditions: concentration equal to IC50 from undifferentiated model, 24 h.
Method: Then, the differentiated SH-SY5Y cells were treated with concentrations corresponding to the IC50 values obtained from the cytotoxicity measurement using undifferentiated SH-SY5Y cells. Cells were exposed to a tested compound for 24 h. Then, the medium was replaced by a medium containing 10 μM of MTT and cells were allowed to produce formazan for another, approximately 3 h under surveillance. Thereafter, the medium was aspirated and purple crystals of MTT formazan were dissolved in 100 μL DMSO under shaking. Cell viability was assessed spectrophotometrically by the amount of formazan produced. Absorbance was measured at 570 nm with 650 nm reference wavelength on Spark (Tecan Group Ltd., Männedorf, Switzerland). The IC50 value was then calculated from the control-subtracted triplicates using non-linear regression (four parameters) of GraphPad Prism 9 software. Final IC50 and SEM values were obtained as a mean of three.
A further data set deals with SH-SY5Y cells. Briefly: dehydrogenase activity, WST-1 test. The class given is cell-based, human. Conditions: for Dehydrogenase Activity (% of Control): 100 µM, mean ± SD; for change in dehydrogenase activity (in words): 10 µM. The method, then: Next, we tested the effects of the compounds on intracellular dehydrogenase activity and glutathione levels. […] To evaluate the effects of the compounds on cells, we measured total intracellular dehydrogenase activity as a marker of cellular viability and glutathione levels for evaluation of oxidative stress (Table 6).
Dehydrogenase activity was evaluated by WST-1 test (Roche, Munich, Germany). The WST-1 test measures the activity of intra- and extra-mitochondrial dehydrogenases. […] The change of absorbance was measured by spectrophotometer at the wavelength of 440 nm using SPARK microplate reader (Tecan, Austria) while incubated at 37 °C. The dehydrogenase activity was expressed as the percentage of total cellular dehydrogenase activity relative to that in the control cells (control = 100%).
(Tetrazolium assays rely on reduction of a dye to a coloured formazan, in cell work by metabolically active cells.)

The next data set in a line: in vitro. Particulars: human, undifferentiated SH-SY5Y cells.

The structures appear in SMILES notation. “Also recorded” adds a separate entry of the source.

T1 sequence (Q13224 27-1484, other chains not shown): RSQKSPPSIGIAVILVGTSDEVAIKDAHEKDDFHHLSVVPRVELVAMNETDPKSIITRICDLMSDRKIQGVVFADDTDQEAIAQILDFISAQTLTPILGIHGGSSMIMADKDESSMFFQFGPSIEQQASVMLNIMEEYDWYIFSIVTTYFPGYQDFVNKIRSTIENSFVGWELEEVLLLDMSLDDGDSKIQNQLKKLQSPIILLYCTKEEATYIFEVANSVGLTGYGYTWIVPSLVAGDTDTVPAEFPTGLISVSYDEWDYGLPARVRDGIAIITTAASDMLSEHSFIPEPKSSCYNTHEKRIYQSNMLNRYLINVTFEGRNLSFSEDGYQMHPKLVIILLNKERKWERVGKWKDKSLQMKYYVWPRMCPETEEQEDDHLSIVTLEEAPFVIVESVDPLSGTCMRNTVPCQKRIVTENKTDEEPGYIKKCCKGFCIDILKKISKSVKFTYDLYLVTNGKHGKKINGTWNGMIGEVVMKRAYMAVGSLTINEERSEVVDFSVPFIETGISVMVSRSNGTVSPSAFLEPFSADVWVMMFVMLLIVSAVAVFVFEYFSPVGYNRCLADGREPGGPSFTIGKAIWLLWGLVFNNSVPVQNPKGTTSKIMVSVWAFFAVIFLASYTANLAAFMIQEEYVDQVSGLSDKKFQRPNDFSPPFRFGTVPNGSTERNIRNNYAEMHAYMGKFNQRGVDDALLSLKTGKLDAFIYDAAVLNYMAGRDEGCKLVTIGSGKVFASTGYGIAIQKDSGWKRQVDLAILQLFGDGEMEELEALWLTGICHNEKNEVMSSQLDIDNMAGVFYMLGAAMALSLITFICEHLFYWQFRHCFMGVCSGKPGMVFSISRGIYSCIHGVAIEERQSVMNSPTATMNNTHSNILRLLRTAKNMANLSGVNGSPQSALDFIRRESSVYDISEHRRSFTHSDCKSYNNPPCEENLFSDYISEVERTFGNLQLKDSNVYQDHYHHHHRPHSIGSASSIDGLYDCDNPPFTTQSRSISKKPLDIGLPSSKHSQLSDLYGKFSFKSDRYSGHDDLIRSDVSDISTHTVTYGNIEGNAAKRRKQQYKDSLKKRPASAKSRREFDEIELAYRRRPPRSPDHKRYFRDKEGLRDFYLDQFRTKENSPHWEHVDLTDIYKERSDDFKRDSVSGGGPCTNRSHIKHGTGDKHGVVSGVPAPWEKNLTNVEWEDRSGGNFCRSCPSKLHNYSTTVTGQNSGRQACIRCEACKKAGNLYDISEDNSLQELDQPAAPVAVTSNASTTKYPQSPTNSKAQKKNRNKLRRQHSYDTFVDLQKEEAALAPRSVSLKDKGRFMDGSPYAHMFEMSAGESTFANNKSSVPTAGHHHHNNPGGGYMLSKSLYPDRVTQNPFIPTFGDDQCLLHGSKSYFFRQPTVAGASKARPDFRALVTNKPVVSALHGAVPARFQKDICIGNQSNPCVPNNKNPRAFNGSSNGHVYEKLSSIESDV
T3 sequence (P22303 32-614): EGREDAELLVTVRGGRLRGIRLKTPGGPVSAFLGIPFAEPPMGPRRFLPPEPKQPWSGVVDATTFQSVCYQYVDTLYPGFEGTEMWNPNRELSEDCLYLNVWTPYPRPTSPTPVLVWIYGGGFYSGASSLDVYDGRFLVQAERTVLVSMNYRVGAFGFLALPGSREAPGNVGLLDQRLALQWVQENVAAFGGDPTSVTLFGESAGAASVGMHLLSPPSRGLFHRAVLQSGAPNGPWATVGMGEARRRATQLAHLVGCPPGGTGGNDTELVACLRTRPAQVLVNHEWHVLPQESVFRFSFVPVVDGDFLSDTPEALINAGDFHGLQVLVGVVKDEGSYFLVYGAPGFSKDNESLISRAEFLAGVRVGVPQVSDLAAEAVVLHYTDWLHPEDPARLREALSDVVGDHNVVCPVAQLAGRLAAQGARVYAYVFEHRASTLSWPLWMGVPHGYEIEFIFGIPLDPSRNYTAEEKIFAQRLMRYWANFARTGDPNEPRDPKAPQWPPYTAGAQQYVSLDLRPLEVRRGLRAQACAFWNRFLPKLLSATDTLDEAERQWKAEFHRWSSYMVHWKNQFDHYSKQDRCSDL
T2 sequence (P06276 29-602): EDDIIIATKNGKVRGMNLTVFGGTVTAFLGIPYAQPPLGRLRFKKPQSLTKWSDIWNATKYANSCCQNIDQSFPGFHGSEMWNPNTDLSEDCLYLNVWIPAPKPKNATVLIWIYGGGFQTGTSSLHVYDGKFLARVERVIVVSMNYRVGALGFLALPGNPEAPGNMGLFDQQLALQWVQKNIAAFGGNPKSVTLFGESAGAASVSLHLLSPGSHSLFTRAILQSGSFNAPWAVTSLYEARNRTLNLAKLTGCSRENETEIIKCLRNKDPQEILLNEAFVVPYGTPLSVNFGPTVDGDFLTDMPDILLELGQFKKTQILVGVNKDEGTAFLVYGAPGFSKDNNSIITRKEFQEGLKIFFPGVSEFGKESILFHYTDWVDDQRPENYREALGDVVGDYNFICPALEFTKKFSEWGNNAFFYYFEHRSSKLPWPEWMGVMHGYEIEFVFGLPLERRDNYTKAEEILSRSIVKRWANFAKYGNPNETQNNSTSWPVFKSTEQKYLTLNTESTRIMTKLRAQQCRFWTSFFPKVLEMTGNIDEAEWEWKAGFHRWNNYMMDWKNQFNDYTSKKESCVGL

Regarding `C#CCN(C)c1nc(NCCCC)c2ccccc2n1` [I-6e, N4-butyl-N2-methyl-N2-(prop-2-yn-1-yl)quinazoline-2,4-diamine], the inhibition at 10 µM at GluN1/GluN2B receptor was 30.1 ± 3.13%. Further, the values for the inhibition at 1 µM on human BChE (hBChE) and at human AChE (hAChE) were 4% and 3%, respectively. On hMAO-A, this compound yielded an IC50 of 2.6 ± 0.23 µM. Further, the “effect on viability of differentiated SH-SY5Y (in words)” value in data set [1] is listed as “no difference from the undifferentiated model”. Further, the results for the “Dehydrogenase Activity (% of Control)” value in the data set on SH-SY5Y cells (6 h) and in the data set on SH-SY5Y cells (24 h) were 44 ± 13 % of Control and 49 ± 4 % of Control, respectively. The compound further showed an IC50 at 24 h in the data set “in vitro” of 67.95 ± 0.22 µM.

For `C#CCN(C)c1nc(NC2CCCCC2)c2ccccc2n1` [I-6h, N4-cyclohexyl-N2-methyl-N2-(prop-2-yn-1-yl)quinazoline-2,4-diamine], on GluN1/GluN2B receptor, the inhibition at 10 µM stood at 49.3 ± 1.16%. Also, the inhibition at 1 µM was found to be 0% on human BChE (hBChE) and 4% on human AChE (hAChE). The same compound showed an IC50 at hMAO-A of 0.9 ± 0.17 µM. Also, the “effect on viability of differentiated SH-SY5Y (in words)” value in data set [1] is recorded as “no difference from the undifferentiated model”. The “Dehydrogenase Activity (% of Control)” value in the data set with SH-SY5Y cells (6 h) is 62 ± 10 % of Control; in the data set on SH-SY5Y cells (24 h), 49 ± 2 % of Control. Also, in “in vitro”, half-maximal inhibition (IC50 at 24 h) required 53.2 ± 3.03 µM.

As to `C#CCN(C)c1nc(NC2CCCCC2)c2ccc(Cl)cc2n1` [II-6h, 7-chloro-N4-cyclohexyl-N2-methyl-N2-(prop-2-yn-1-yl)quinazoline-2,4-diamine], the inhibition at 10 µM at GluN1/GluN2B receptor was 63.5 ± 3.46%. The inhibition at 1 µM at human BChE (hBChE) and at human AChE (hAChE) was 3% throughout. Besides, the “effect on viability of differentiated SH-SY5Y (in words)” value in data set [1] is “did not exhibit any cytotoxic effects; also recorded: lost the cytotoxic effect”. For the same compound, the “change in dehydrogenase activity (in words)” value in the data set with SH-SY5Y cells (24 h) was “no significant changes”. Further, the figures for the “Dehydrogenase Activity (% of Control)” value in the data set on SH-SY5Y cells (6 h) and with SH-SY5Y cells (24 h) were 40 ± 3 % of Control and 22 ± 7 % of Control, respectively. This compound also displayed an IC50 at 24 h in the data set “in vitro” of 35 ± 1.53 µM.

For `C#CCN(C)c1nc(N)c2cc(OC)ccc2n1` [III-6a, 6-methoxy-N2-methyl-N2-(prop-2-yn-1-yl)quinazoline-2,4-diamine], at GluN1/GluN2B receptor, the inhibition at 10 µM is 18.1 ± 5.75%. Besides, the figures for the inhibition at 1 µM at human BChE (hBChE) and at human AChE (hAChE) were 1% and 9%, respectively. On hMAO-A, this compound showed an IC50 of 0.62 ± 0.04 µM. For the same compound, the “effect on viability of differentiated SH-SY5Y (in words)” value in data set [1] is “no difference from the undifferentiated model”. Also, the “change in dehydrogenase activity (in words)” value in the data set on SH-SY5Y cells (24 h) was “no significant changes”. Besides, the “Dehydrogenase Activity (% of Control)” value with SH-SY5Y cells (6 h) was 107 ± 8 % of Control; in the data set on SH-SY5Y cells (24 h), 128 ± 4 % of Control. For the same compound, in the data set “in vitro”, the IC50 at 24 h is 38.6 ± 0.82 µM.
